In the experiment the target is S. cerevisiae eIF2B mutant, luciferase reporter luminescence. Put plainly: potency on yeast eIF2B luminescence signal – S. cerevisiae, mutant, wild-type, growth, dose response (AID 792).
Where [1] appears, read: measured here: mutant yeast growth.
[2] abbreviates: S. cerevisiae wild-type, luminescence.

Results filed as inconclusive are left out. The source made the active and inactive calls. How the calls were made is not given here.

With `Cc1ccc(C)c(N=C2CCCN2Cc2ccccc2)c1C#N`, the IC50 was > 100 µM (inactive). Besides, the IC50 under setting [1] was > 100 µM.
Take `O=C(CC1Nc2ccccc2NC1=O)NC1CCCCC1` (centres undefined): the IC50 is > 100 µM (inactive). The IC50 under setting [1] is > 100 µM.
As for `COc1cc(S(=O)(=O)N(Cc2cccnc2)Cc2ccco2)ccc1-n1cnnn1`, the IC50 was > 100 µM (inactive). Also, the IC50 under setting [2] was > 100 µM. In addition, the IC50 under setting [1] is > 100 µM.
As to `CSc1ccccc1NC(=O)c1cc(-c2cccs2)on1`, the IC50 was > 100 µM (inactive). The IC50 under setting [1] is > 100 µM.
As to `Cc1cc2c(cc1C)CSC(c1ccc(O)cc1)SC2`, the IC50 was > 100 µM (inactive). For the same compound, under setting [1], the IC50 is > 100 µM.
`O=C(NC1CCCC1)C(c1ccccc1)N(Cc1ccco1)C(=O)Cc1cccs1` (centres undefined): the IC50 is > 100 µM (inactive). Moreover, the IC50 under setting [1] was > 100 µM.
The corresponding values for `CCN1CCN(c2cc(C(C)(C)C)nc3c(-c4ccccc4)c(C)nn23)CC1` are “inactive” and 15.8 µM.
For the compound `CCOP(=O)(C#CC(C)(C)C)C1(O)CCCCC1` (centres undefined), the IC50 is > 100 µM (inactive). The IC50 under setting [1] is > 100 µM.
For the compound `O=C(Cc1ccccc1)N(c1ccc(F)cc1)C1C=CS(=O)(=O)C1` (centres undefined), the IC50 is > 100 µM (inactive). Besides, the half-inhibitory concentration (IC50) under setting [1] was > 100 µM.
The like results for `CCOC(=O)CC(=O)CSc1nc(C)cc(-c2cccnc2)c1C#N` were, in that order, > 100 µM (inactive) and > 100 µM.
For `Cc1nnc(NC2CCCCC2)[nH]c1=O`, the IC50 is > 100 µM (inactive). Moreover, under setting [1], the IC50 was > 100 µM.
Take `N#Cc1cc2ccccc2nc1SCc1cccnc1`: the IC50 was > 100 µM (inactive). The IC50 under setting [1] is > 100 µM.
With `CC(C)OC(=O)CCc1nc2ccccc2[nH]c1=O`, the IC50 was > 100 µM (inactive). For the same compound, under setting [1], the IC50 is > 100 µM.
The like results for `Cc1cc(C(=O)Nc2ccccc2C(F)(F)F)no1` were, in that order, > 100 µM (inactive) and > 100 µM.
Consider `CCOC(=O)C1(C)/C(=N/Nc2ccccc2)C(=O)C(=O)N1c1ccccc1` (centres undefined), for which the IC50 is > 100 µM (inactive). Moreover, the half-maximal inhibitory concentration (IC50) under setting [1] is > 100 µM.
On to `CCOC(=O)CC1=NC(=O)CS1`, for which the IC50 is > 100 µM (inactive). In addition, the IC50 under setting [1] was > 100 µM.
With `C=CCc1c(C)nc(SC(C)C)[nH]c1=O`, the IC50 was > 100 µM (inactive). Further, under setting [1], the half-maximal inhibitory concentration (IC50) was > 100 µM.
`CCOC(=O)c1[nH]c2ccc(OC)cc2c1NC(=O)C(C)N1CCSCC1` (centres undefined): the IC50 is > 100 µM (inactive). In addition, the IC50 under setting [1] was > 100 µM.
Take `Cc1ccc(-c2nnc3ccc(SCC(=O)NCc4ccco4)nn23)cc1`: the IC50 is > 100 µM (inactive). Moreover, the IC50 under setting [1] was > 100 µM.
For `Cc1cc2ncc(C(=O)Nc3ccccc3)c(C)n2n1`, the IC50 was > 100 µM (inactive). The IC50 under setting [1] is > 100 µM.
For the compound `CCOC(=O)N1CCN(C(=O)CN(Cc2ccc(Cl)cc2)S(=O)(=O)c2ccc(C)cc2)CC1`, the IC50 is > 100 µM (inactive). Moreover, the IC50 under setting [1] is > 100 µM.
The like results for `CCCCOc1ccc(C2CC(=O)N(C)C2=O)cc1` (centres undefined) were, in that order, > 100 µM (inactive) and > 100 µM.
For the compound `COc1ccc(NC(=O)CSc2ncnc3c2cnn3Cc2ccccc2)cc1OC`, the IC50 is > 100 µM (inactive). In addition, the IC50 under setting [1] is > 100 µM.
Take `O=C(Cn1nnc(-c2ccc(Cl)cc2)n1)NC1CC2CCC1C2` (centres undefined): the IC50 is > 100 µM (inactive). Further, under setting [1], the IC50 was > 100 µM.
Take `C=CCN1CC(c2nc3ccccc3n2Cc2cccc3ccccc23)CC1=O` (centres undefined): the IC50 is > 100 µM (inactive). Moreover, the IC50 under setting [1] is > 100 µM.
`O=C(Nc1ccccc1N1CCN(C(=O)c2ccccc2)CC1)c1cc2ccccc2o1`: the IC50 is > 100 µM (inactive). For the same compound, the concentration for half-maximal inhibition (IC50) under setting [1] was > 100 µM.
The corresponding values for `Cc1ccccc1OCc1nc2c3cnn(C)c3ncn2n1` are > 100 µM (inactive) and > 100 µM.
The corresponding values for `CCOc1ccc(S(=O)(=O)N2CCC(C(N)=O)CC2)c2ccccc12` are > 100 µM (inactive) and > 100 µM.
In the case of `O=C(Nc1ccc(Sc2ccc(Br)cc2)cc1)c1ccco1`, the IC50 is > 100 µM (inactive). The IC50 under setting [1] is > 100 µM.
On to `O=C(Nc1ccccn1)c1cc2ccccc2o1`, for which the IC50 result was “inactive”. Also, the IC50 under setting [2] was 4.46 µM. Moreover, the IC50 under setting [1] stood at 56.3 µM.
Regarding `CCCCN(Cc1ccccc1)S(=O)(=O)c1ccc2[nH]c(=O)oc2c1`, the IC50 is > 100 µM (inactive). Also, the IC50 under setting [1] was > 100 µM.
On to `COc1ccc(NC(=O)N2CCc3ccccc32)cc1`, for which the IC50 entry is “inactive”. The IC50 under setting [2] worked out at 6.14 µM. Also, under setting [1], the IC50 is > 100 µM.
On to `O=C(CCNS(=O)(=O)c1ccc2c(c1)CCC(=O)N2)NCc1cccnc1`, for which the IC50 was > 100 µM (inactive). For the same compound, under setting [1], the IC50 was > 100 µM.
Consider `COc1ccc(S(=O)(=O)N2CCCCC2C(=O)O)cc1OC` (centres undefined), for which the IC50 was > 100 µM (inactive). For the same compound, the IC50 under setting [1] was > 100 µM.
In the case of `Cn1c(=O)[nH]c(=O)c2c1nc(SCC(O)CO)n2Cc1ccccc1Cl` (centres undefined), the IC50 was > 100 µM (inactive). Moreover, the IC50 under setting [1] is > 100 µM.
The like results for `COC(=O)CC1Oc2ccccc2N(Cc2ccc(C)cc2)C1=O` (centres undefined) were, in that order, > 100 µM (inactive) and > 100 µM.
Regarding `CC(C)C(=O)N1CCN(C2=NS(=O)(=O)c3ccccc32)CC1`, the IC50 was > 100 µM (inactive). Besides, the IC50 under setting [1] is > 100 µM.
In the case of `CC(=O)/C=C(\C)Nc1ccc(-c2cnc(-c3ccccc3)o2)cc1`, the IC50 entry is “inactive”. Also, the IC50 under setting [2] is > 100 µM. Moreover, the IC50 under setting [1] is > 100 µM.
Take `CCS(=O)(=O)N1CCCC(C(=O)NCCN(C)Cc2ccccc2)C1` (centres undefined): the IC50 is > 100 µM (inactive). The IC50 under setting [1] is > 100 µM.
The corresponding values for `CCC(C)(C)n1nnnc1CN(Cc1cccs1)Cc1cc2cc(OC)ccc2[nH]c1=O` are > 100 µM (inactive) and > 100 µM.
The corresponding values for `CCCCC(=O)Nc1ccc(N2CCN(S(C)(=O)=O)CC2)cc1` are > 100 µM (inactive) and > 100 µM.
Regarding `Cc1cc2c(c(=O)n1CC1CCCO1)C(c1ccco1)C(C#N)=C(N)O2` (centres undefined), the IC50 was > 100 µM (inactive). Under setting [1], the IC50 was > 100 µM.
Consider `CN1CCN(c2nc(N3CCN(CCO)CC3)nc3ccccc23)CC1`, for which the IC50 is > 100 µM (inactive). Under setting [1], the IC50 is > 100 µM.
In the case of `CCCn1c(SCC(=O)Nc2nc3c(s2)CCCC3)nc2c1c(=O)n(C)c(=O)n2C`, the IC50 is > 100 µM (inactive). For the same compound, the IC50 under setting [1] was > 100 µM.
For `Oc1ccccc1-c1nnc(-c2ccc(C(F)(F)F)cc2)o1`, the IC50 was > 100 µM (inactive). In addition, the half-maximal inhibitory concentration (IC50) under setting [1] was > 100 µM.
Consider `CN1C(=O)CC2(CC(=O)N(Cc3ccccc3)C2)C1=O` (centres undefined), for which the IC50 was > 100 µM (inactive). Further, the IC50 under setting [1] is > 100 µM.
The like results for `COc1cccc(-n2c(C)nnc2SCC(=O)Nc2ccccc2N2CCOCC2)c1` were, in that order, > 100 µM (inactive) and > 100 µM.
The corresponding values for `COc1cccc(NC(=O)CN(c2ccc(C)cc2)S(=O)(=O)c2c(C)nn(C)c2C)c1` are > 100 µM (inactive) and > 100 µM.
For the compound `COC(=O)[C@H](Cc1ccccc1)NC(=O)NCc1ccccc1OC`, the IC50 is > 100 µM (inactive). Besides, under setting [1], the IC50 was > 100 µM.
On to `O=C(NC(Cc1ccccc1)C(=O)OCC(=O)N1CCc2ccccc21)c1ccco1` (centres undefined), for which the IC50 was > 100 µM (inactive). For the same compound, the IC50 under setting [1] is > 100 µM.
As for `CC(=O)NC(CCS(C)(=O)=O)C(=O)Nc1ccccc1Cl` (centres undefined), the IC50 is > 100 µM (inactive). Also, the IC50 under setting [1] was > 100 µM.
The like results for `Nc1nc(NCc2ccccc2)nc(-c2ccccc2)n1` were, in that order, > 100 µM (inactive) and > 100 µM.
Regarding `O=C(Nc1cccnc1)c1cc(-c2ccco2)on1`, the IC50 is > 100 µM (inactive). Further, the IC50 under setting [1] was > 100 µM.
Turning to `Nc1cc2c(cc1C(=O)c1ccccc1)OCCO2`, the IC50 is > 100 µM (inactive). The IC50 under setting [1] is > 100 µM.
As to `CC(NC(=O)CSc1nc2ccccc2c(=O)n1CCCO)c1ccccc1` (centres undefined), the IC50 was > 100 µM (inactive). The IC50 under setting [1] is > 100 µM.
For `Cc1ccc(C)c(N2CCN(S(=O)(=O)c3ccc4[nH]c(=O)c(=O)[nH]c4c3)CC2)c1`, the IC50 was > 100 µM (inactive). Also, under setting [1], the half-maximal inhibitory concentration (IC50) is > 100 µM.
With `CC(=O)Nc1ccc(OCC(O)CN2CCN(S(=O)(=O)c3ccc(NC(C)=O)cc3)CC2)cc1` (centres undefined), the IC50 is > 100 µM (inactive). For the same compound, under setting [1], the concentration for half-maximal inhibition (IC50) was > 100 µM.
Turning to `COc1ccc(C(=O)Nn2c(C)nnc2-n2nc(C)cc2C)cc1OC`, the IC50 was > 100 µM (inactive). Besides, under setting [1], the IC50 was > 100 µM.
The corresponding values for `O=C(NCc1ccco1)c1sc(=S)n2c1[nH]c(=O)c1ccccc12` are > 100 µM (inactive) and > 100 µM.
`O=C1c2ccccc2C(=O)C1c1ccncc1`: the IC50 result is “inactive”. In addition, the IC50 under setting [2] came to 17.9 µM. Also, under setting [1], the IC50 is > 100 µM.
As to `Cc1nnc2sc(-c3ccncc3)nn12`, the IC50 is > 100 µM (inactive). Also, the IC50 under setting [1] is > 100 µM.
The corresponding values for `CCCc1nc(SCC(=O)Nc2cc(C)on2)c2ccccc2n1` are > 100 µM (inactive) and > 100 µM.
The corresponding values for `NC(=O)CSC1=Nc2ccccc2C2=NC(CC(=O)NCc3cccs3)C(=O)N12` (centres undefined) are > 100 µM (inactive) and > 100 µM.
The like results for `O=C1CNC(=O)N1Cc1ccc(Br)cc1` were, in that order, > 100 µM (inactive) and > 100 µM.
In the case of `CCCOc1ccc(C(=O)N2CCCc3ccccc32)cc1`, the IC50 is > 100 µM (inactive). The IC50 under setting [1] is > 100 µM.
The like results for `CC(C)CC[n+]1ccn(-c2nc3ccccc3nc2[N-]S(=O)(=O)c2ccccc2)c1` were, in that order, > 100 µM (inactive) and > 100 µM.
For `CC(C)Oc1ccc(C(=O)O)c(C(=O)O)c1`, the IC50 is > 100 µM (inactive). Further, the IC50 under setting [1] is > 100 µM.

The record behind these values is PubChem BioAssay AID792 (PCMD, 2007).
